These results are taken from US20110129542A1, “SUBSTITUTED AZEPINE- AND DIAZEPINE-SULFONAMIDES USEFUL TO INHIBIT 11BETA-HYDROXYSTEROID DEHYDROGENASE TYPE-1” (Schering Corporation, priority 2007, published 2011).

SMILES strings stand for the structures.

Assay [1] concerns the target Human 11-β-HSD1 (Homo sapiens, UniProt P28845). Put plainly: Measurement of 11β-HSD1 activity (SPA, 3H-cortisone, membrane), human enzyme. The class given is biochemical. The conditions noted are these: 125 nM 3H-cortisone, 3 mM NADPH, 0.5 μg membrane, room temperature 1 hr. The procedure:
(§1) Measurement of 11β-HSD1 activity
(§2) The reaction was incubated at room temperature for 1 hr before it was stopped by addition of […] containing 20 mM NaPO4 pH 7.5, 30 μM 18β-glycyrrhetinic acid, 1 μg/ml monoclonal anti-cortisol antibody (Biosource) and 2 mg/ml anti-mouse antibody coated scintillation proximity assay (SPA) beads (Amersham Bioscience). The mixture was incubated at room temperature for 2 hrs with vigorous shaking and analyzed on TopCount scintillation counter.

The target in assay [2] is Mouse 11-β-HSD1 (Mus musculus, UniProt P50172). The assay can be described thus: Measurement of 11β-HSD1 activity (SPA, 3H-cortisone, membrane), mouse enzyme. It is filed as biochemical. The conditions noted are these: 125 nM 3H-cortisone, 3 mM NADPH, 0.5 μg membrane, room temperature 1 hr. The procedure:
as §1, §2

Sequence of Mouse 11-β-HSD1 (P50172 whole entry): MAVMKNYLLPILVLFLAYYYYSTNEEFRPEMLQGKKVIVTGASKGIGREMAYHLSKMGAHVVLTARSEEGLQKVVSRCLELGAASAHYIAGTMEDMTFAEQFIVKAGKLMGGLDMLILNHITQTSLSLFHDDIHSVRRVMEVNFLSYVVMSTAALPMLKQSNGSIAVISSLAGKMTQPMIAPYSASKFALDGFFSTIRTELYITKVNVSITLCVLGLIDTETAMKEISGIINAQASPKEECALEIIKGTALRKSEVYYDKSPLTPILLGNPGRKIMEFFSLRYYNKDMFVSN
Sequence of Human 11-β-HSD1 (P28845 whole entry): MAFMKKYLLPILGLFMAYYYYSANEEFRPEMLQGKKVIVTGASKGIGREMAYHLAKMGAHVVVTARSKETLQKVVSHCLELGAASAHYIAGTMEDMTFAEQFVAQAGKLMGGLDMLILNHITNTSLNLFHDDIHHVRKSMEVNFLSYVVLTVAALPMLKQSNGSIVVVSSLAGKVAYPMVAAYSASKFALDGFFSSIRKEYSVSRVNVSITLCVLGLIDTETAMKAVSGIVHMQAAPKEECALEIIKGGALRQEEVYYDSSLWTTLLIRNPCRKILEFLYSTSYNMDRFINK

In the case of `CC(C)(C)c1ccc(S(=O)(=O)N2CCCNCC2)cc1` [Compound 45], the IC50 was 3740 nM in assay [1] and 2300 nM in assay [2].
The like results for `CC(=O)N1CCCN(S(=O)(=O)c2ccc(C(C)(C)C)cc2)CC1` [Compound 44] were, in that order, 254 nM and 2540 nM.
The like results for `CC(C)(C)c1ccc(S(=O)(=O)N2CCCC(O)CC2)cc1` (centres unmarked) [Compound 11] were, in that order, 466 nM and 629 nM.
The matching figures for `CC(=O)c1ccc(S(=O)(=O)N2CCCC(C)(O)CC2)cc1` (centres unmarked) [Compound 29]: 5250 nM and above 10000 nM.
For the molecule `COc1ccc(S(=O)(=O)N2CCC=C(c3ccccc3)CC2)cc1` [Compound 34], the values for the IC50 in assay [1] and in assay [2] were 58 nM and 1880 nM, respectively.
The matching figures for `COc1ccc(S(=O)(=O)N2CC=C(c3ccccc3)CCC2)cc1` [Compound 40]: 178 nM and 1550 nM.
`CC(C)(C)c1ccc(S(=O)(=O)N2CCCN(C3CC4CCC3C4)CC2)cc1` (centres unmarked) [Compound 47]: the values for the IC50 in assay [1] and in assay [2] were 19 nM and 102 nM, respectively.
For the molecule `O=S(=O)(c1ccc(Cl)cc1)N1CCCC(O)(c2ccccc2)CC1` (centres unmarked) [Compound 6], the values for the IC50 in assay [1] and in assay [2] were 1070 nM and 2720 nM, respectively.
In the case of `CC(C)(C)c1ccc(S(=O)(=O)N2CCCN(C3CCCC3)CC2)cc1` [Compound 43], the IC50 in assay [1] is 30 nM; in assay [2], 263 nM.
The matching figures for `COC1CCCN(S(=O)(=O)c2ccc(C(C)(C)C)cc2)CC1` (centres unmarked) [Compound 12]: 7 nM and 165 nM.
On to `COc1ccc(S(=O)(=O)N2CCCC(O)(c3ccccc3)CC2)cc1` (centres unmarked) [Compound 1], for which the IC50 in assay [1] was 1320 nM; in assay [2], 1980 nM.
Regarding `CC(C)(C)OC(=O)N1CCCN(S(=O)(=O)c2ccc(C(C)(C)C)cc2)CC1` [Compound 46], the results for the half-inhibitory concentration (IC50) in assay [1] and in assay [2] were 256 nM and 2760 nM, respectively.
The like results for `COC1(C)CCCN(S(=O)(=O)c2ccc(C(C)(C)C)cc2)CC1` (centres unmarked) [Compound 18] were, in that order, 3 nM and 57 nM.
